Earlier results as cited in patent publication US20040197402A1, “Oxcarbazepine dosage forms” (priority 2001, published 2004).

Settings: background statement

For `NC(=O)N1c2ccccc2CC(=O)c2ccccc21` [Oxcarbazepine, 10, 11-dihydro-10-oxo-5H-dibenz [b,f], azepine-5-carboxamide], the solubility in water is listed as “poor solubility in water”.
